Results as given in patent US8637501B2, “Azinone-substituted azepino[b]indole and pyrido-pyrrolo-azepine MCH-1 antagonists, methods of making, and use thereof” (Albany Molecular Research, Inc., priority 2009, dated 2014).
Structures can show the parent of a compound that is named as a salt.

Target: human MCH-1 receptor (Homo sapiens (Human), UniProt Q99705)
Test: Binding Assay for Human Melanin-Concentrating Hormone (MCH-1) Receptor
Conditions: radioligand displacement, membranes from CHO-K1 cells expressing human MCH-1 receptor; Ki from IC50 by Cheng Prusoff equation; read-out: MCH1 Ki
Method: Binding Assay for Human Melanin-Concentrating Hormone (MCH-1) Receptor
Evaluation of the affinity of compounds for the human MCH-1 receptor was accomplished using 4-(3,4,5-tritritiumbenzyloxy)-1-(1-(2-(pyrrolidin-1-yl)ethyl)-1H-indazol-5-yl)pyridin-2(1H)-one and membranes prepared from stable CHO-K1 cells expressing the human MCH-1 receptor obtained from Euroscreen (Batch 1138). Cell membrane homogenates (8.92 μg protein) were incubated for 60 min at 25° C. with 1.4 nM of the [^3H]-labeled compound in the absence or presence of the test compound in 50 mM Tris-HCl buffer, pH 7.4. Nonspecific binding was determined in the presence of 50 μM 1-(5-(4-cyanophenyl)bicyclo[3.1.0]hexan-2-yl)-3-(4-fluoro-3-(trifluoromethyl)phenyl)-1-(3-(4-methylpiperazin-1-yl)propyl)urea. Following incubation, the samples were filtered rapidly under vacuum through Skatron 11731 filters, pre-soaked in 0.5% polyethylenimine, and washed with ice-cold 50 mM Tris-HCl buffer, pH 7.4, (wash setting 9,9,0) using a Skatron cell harvester. The filters were counted for radioactivity in a liquid scintillation counter (Tri-Carb 2100TR, Packard) using a scintillation cocktail (Ultima Gold MV, Perkin Elmer).
The results are expressed as a percent inhibition of the control radioligand specific binding. The IC50 value (concentration causing a half-maximal inhibition of control specific binding) and Hill coefficient (nH) were determined by non-linear regression analysis of the competition curve using Hill equation curve fitting. The inhibition constant (Ki) was calculated from the Cheng Prusoff equation: (Ki=IC50/(1+(L/KD)), where L=concentration of radioligand in the assay, and KD=affinity of the radioligand for the receptor.

Sequence of human MCH-1 receptor (Q99705 whole entry): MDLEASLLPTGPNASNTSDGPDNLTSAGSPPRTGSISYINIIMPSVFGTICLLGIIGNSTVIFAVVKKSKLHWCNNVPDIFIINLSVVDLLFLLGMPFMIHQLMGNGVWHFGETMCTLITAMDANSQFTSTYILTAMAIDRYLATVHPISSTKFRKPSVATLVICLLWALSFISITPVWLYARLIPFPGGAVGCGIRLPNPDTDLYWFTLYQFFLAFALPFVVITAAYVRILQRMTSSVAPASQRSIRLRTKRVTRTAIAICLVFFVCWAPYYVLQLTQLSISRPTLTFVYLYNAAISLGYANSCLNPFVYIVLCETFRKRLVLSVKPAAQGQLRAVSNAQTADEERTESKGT

Ki	Compound
8.8 nM	CN1CCCc2c(c3ccc(-n4ccc(OCc5ccc(F)cn5)cc4=O)cc3n2C)C1 [Example 70, 1-(2,6-Dimethyl-1,2,3,4,5,6-hexahydroazepino[4,3-b]indol-8-yl)-4-((5-fluoropyridin-2-yl)methoxy)pyridin-2(1H)-one hydrochloride]
8.5 nM	CN1CCCc2c(c3ccc(-n4ccc(OCc5ccc(C(F)(F)F)nc5)cc4=O)cc3n2C)C1 [Example 71, 1-(2,6-Dimethyl-1,2,3,4,5,6-hexahydroazepino[4,3-b]indol-8-yl)-4-((6-(trifluoromethyl)pyridin-3-yl)methoxy)pyridin-2(1H)-one hydrochloride]
9.4 nM	CCN1CCCc2c(c3ccc(-n4ccc(OCc5ccc(F)cn5)cc4=O)cc3n2C)C1 [Example 73, 1-(2-Ethyl-6-methyl-1,2,3,4,5,6-hexahydroazepino[4,3-b]indol-8-yl)-4-((5-fluoropyridin-2-yl)methoxy)pyridin-2(1H)-one hydrochloride]
13 nM	Cn1c2c(c3ccc(-n4ccc(OCc5ccc(F)cc5F)cc4=O)nc31)CCNCC2 [Example 83, 4-(2,4-Difluorobenzyloxy)-1-(10-methyl-5,6,7,8,9,10-hexahydropyrido[3′,2′:4,5]pyrrolo[2,3-d]azepin-2-yl)pyridin-2(1H)-one hydrochloride]
11 nM	Cn1c2c(c3ccc(-n4ccc(OCc5ccc(Cl)cc5F)cc4=O)nc31)CCNCC2 [Example 84, 4-(4-Chloro-2-fluorobenzyloxy)-1-(10-methyl-5,6,7,8,9,10-hexahydropyrido[3′,2′:4,5]pyrrolo[2,3-d]azepin-2-yl)pyridin-2(1H)-one hydrochloride]
11 nM	Cn1c2c(c3ccc(-n4ccc(OCc5ccc(Cl)cn5)cc4=O)nc31)CCNCC2 [Example 85, 4-((5-Chloropyridin-2-yl)methoxy)-1-(10-methyl-5,6,7,8,9,10-hexahydropyrido[3′,2′:4,5]pyrrolo[2,3-d]azepin-2-yl)pyridin-2(1H)-one hydrochloride]
16 nM	Cn1c2c(c3ccc(-n4ccc(OCc5ccccc5)cc4=O)nc31)CCN(C1CCC1)CC2 [Example 86, 4-(Benzyloxy)-1-(7-cyclobutyl-10-methyl-5,6,7,8,9,10-hexahydropyrido[3′,2′:4,5]pyrrolo[2,3-d]azepin-2-yl)pyridin-2(1H)-one hydrochloride]
6.9 nM	CCN1CCc2c(n(C)c3nc(-n4ccc(OCc5ccccc5)cc4=O)ccc23)CC1 [Example 87, 4-(Benzyloxy)-1-(7-ethyl-10-methyl-5,6,7,8,9,10-hexahydropyrido[3′,2′:4,5]pyrrolo[2,3-d]azepin-2-yl)pyridin-2(1H)-one hydrochloride]
8.7 nM	CN1CCc2c(n(C)c3nc(-n4ccc(OCc5ccccc5)cc4=O)ccc23)CC1 [Example 88, 4-(Benzyloxy)-1-(7,10-dimethyl-5,6,7,8,9,10-hexahydropyrido[3′,2′:4,5]pyrrolo[2,3-d]azepin-2-yl)pyridin-2(1H)-one hydrochloride]
15 nM	Cn1c2c(c3ccc(-n4ccc(OCc5ccc(F)cn5)cc4=O)nc31)CNCCC2 [Example 91, 4-((5-Fluoropyridin-2-yl)methoxy)-1-(10-methyl-5,6,7,8,9,10-hexahydropyrido[3′,2′:4,5]pyrrolo[3,2-c]azepin-2-yl)pyridin-2(1H)-one hydrochloride]
20 nM	Cn1c2c(c3ccc(-n4ccc(-c5ccc(C(F)(F)F)cn5)cc4=O)nc31)CNCCC2 [Example 92, 1-(10-methyl-5,6,7,8,9,10-hexahydropyrido[3′,2′:4,5]pyrrolo[3,2-c]azepin-2-yl)-4-(5-(trifluoromethyl)pyridine-2-yl)pyridin-2(1H)-one hydrochloride]
26 nM	Cn1c2c(c3ccc(-n4ccc(OCc5ccc(Cl)cc5Cl)cc4=O)nc31)CNCCC2 [Example 93, 4-(2,4-Dichlorobenzyloxy)-1-(10-methyl-5,6,7,8,9,10-hexahydropyrido[3′,2′:4,5]pyrrolo[3,2-c]azepin-2-yl)pyridin-2(1H)-one hydrochloride]
